Measurements reported in US6756359B2, “C12 modified erythromycin macrolides and ketolides having antibacterial activity” (Chiron Corporation, priority 2001, dated 2004).
In brackets after ≈: the same amount, converted by molar mass.

Experiments:
Experiment in all cases: Antibacterial activity in vitro, MIC by broth microdilution
[1] = tested on: H. influenzae Hain_49247; type: cell-based, Haemophilus influenzae; conditions: Table 5, Strain ID M: H. influenzae Hain_49247; unit assumed
Protocol: (§1) Representative compounds of the present invention were assayed in vitro for antibacterial activity against the bacterial isolates listed in Table 1 as follows:
(§2) The bacterial isolates listed in Table 1 were cultivated from −70° C. frozen stocks by two consecutive overnight passages (P1, P2) at 35° C. on 5% blood agar (Remel, Lenexa, Kans.). Chocolate agar (Remel) is used for Haemophilus influenzae. H. influenzae and Streptococcus pneumoniae are incubated in 5-10% CO2.
(§3) To determine the amount of solvent to be used to give the desired final concentration, the formula “weight obtained in mg/final concentration in mg/mL” will be used. It will give the amount of solvent in mL needed to be added to give the desired concentration. For example, if 2.5 mg/mL is the desired concentration and the weight of compound is 13.7 mg, then the amount of solvent to be added is 3.94 mL (13.7 mg/2.5 mg/mL=3.94 mLs). Methanol is used as the solvent to dissolve the test compounds. Further dilution of stock is done in sterile, deioinzed water. Drug stocks are kept frozen at −70° C., protected from light.
(§4) MICs are determined by the broth microdilution method in accordance with the NCCLS guidelines. In brief, organism suspensions are adjusted to a 0.5 McFarland standard to yield a final inoculum between 3×10^5 and 7×10^5 CFU/mL. Drug dilutions and inocula are made in sterile, cation adjusted Mueller-Hinton Broth (CAMHB) (Remel) for all but S. pneumoniae [CAMHB with 2-5% lysed horse blood (Remel)] and H. influenzae [Haemophilus Test Medium (Remel)]. An inoculum volume of 100 μl is added to wells containing 100 μl of broth with 2-fold serial dilutions of drug. All inoculated microdilution trays are incubated in ambient air at 35° C. for 18-24 hours, except for S. pneumoniae, and H. influenzae (both at 5-10% CO2).
(§5) Following appropriate incubation, the MIC is determined and the MIC is defined as the lowest concentration of the drug that prevented visible growth.

[2] = tested on: S. epidermidis Step_14990; type: cell-based; conditions: Table 5, Strain ID B: S. epidermidis Step_14990; unit assumed
Protocol: as §1, §2, §3, §4, §5

[3] = tested on: S. aureus Stau_29213; type: cell-based; conditions: Table 5, Strain ID A: S. aureus Stau_29213; unit assumed
Protocol: as §1, §2, §3, §4, §5

[4] = tested on: S. epidermidis Step_f50654 Pen S; type: cell-based; conditions: Table 5, Strain ID C: S. epidermidis Step_f50654; unit assumed
Protocol: as §1, §2, §3, §4, §5

[5] = tested on: E. faecalis Enfa_29212; type: cell-based; conditions: Table 5, Strain ID D: E. faecalis Enfa_29212; unit assumed
Protocol: as §1, §2, §3, §4, §5

[6] = tested on: S. pyogenes Stpy_8668; type: cell-based; conditions: Table 5, Strain ID E: S. pyogenes Stpy_8668
Protocol: as §1, §2, §3, §4, §5

[7] = tested on: S. pneumoniae Stpn_Mef S 3427; type: cell-based, Streptococcus pneumoniae; conditions: Table 5, Strain ID L: S. pneumoniae Stpn_Mef S 3427; unit assumed
Protocol: as §1, §2, §3, §4, §5

[8] = tested on: S. pneumoniae Stpn_297-749 Pen R; type: cell-based, Streptococcus pneumoniae; conditions: Table 5, Strain ID G: S. pneumoniae Stpn_297-749
Protocol: as §1, §2, §3, §4, §5

[9] = tested on: S. pneumoniae Stpn_280-962 Pen S; type: cell-based, Streptococcus pneumoniae; conditions: Table 5, Strain ID H: S. pneumoniae Stpn_280-962
Protocol: as §1, §2, §3, §4, §5

[10] = tested on: S. pneumoniae Stpn_Mef 5654; type: cell-based, Streptococcus pneumoniae; conditions: Table 5, Strain ID K: S. pneumoniae Stpn_Mef 5654; unit assumed
Protocol: as §1, §2, §3, §4, §5

[11] = tested on: S. pneumoniae Stpn_Erm 6849; type: cell-based, Streptococcus pneumoniae; conditions: Table 5, Strain ID I: S. pneumoniae Stpn_Erm 6849; unit assumed
Protocol: as §1, §2, §3, §4, §5

[12] = tested on: S. pneumoniae Stpn_49619; type: cell-based, Streptococcus pneumoniae; conditions: Table 5, Strain ID F: S. pneumoniae Stpn_49619
Protocol: as §1, §2, §3, §4, §5

[13] = tested on: S. pneumoniae Stpn_Erm S 4297; type: cell-based, Streptococcus pneumoniae; conditions: Table 5, Strain ID J: S. pneumoniae Stpn_Erm S 4297
Protocol: as §1, §2, §3, §4, §5

MIC [1] | MIC [2] | MIC [3] | MIC [4] | MIC [5] | MIC [6] | MIC [7] | MIC [8] | MIC [9] | MIC [10] | MIC [11] | MIC [12] | MIC ([13]; unit assumed) | MIC [13] | MIC ([8]; unit assumed) | SMILES
3.13 µg/mL (≈ 3.91 µM) | 0.4 µg/mL (≈ 0.5 µM) | 0.4 µg/mL (≈ 0.5 µM) | 0.4 µg/mL (≈ 0.5 µM) | 0.2 µg/mL (≈ 0.25 µM) | ≦0.05 | 0.2 µg/mL (≈ 0.25 µM) | ≦0.05 | ≦0.05 | 0.78 µg/mL (≈ 0.975 µM) | 0.2 µg/mL (≈ 0.25 µM) | ≦0.05 | 0.1 µg/mL (≈ 0.125 µM) |  |  | CC[C@H]1OC(=O)[C@H](C)C(=O)[C@H](C)[C@@H](OC2O[C@H](C)C[C@H](N(C)C)[C@H]2O)[C@@](C)(OC)C[C@@H](C)C(=O)[C@H](C)[C@H]2N(CCCCn3cnc4ncccc43)C(=O)O[C@]12CC (stereo partly drawn) [Example 22, (3aS,4R,7R,9R,10R,11S,13R,15R,15aR)-3a,4-diethyl-1-[4-(1H-imidazo[4,5-b]pyridin-1-yl)butyl]-11-methoxy-7,9,11,13,15-pentamethyl-2,6,8,14-tetraoxotetradecahydro-2H-oxacyclotetradecino[4,3-d][1,3]oxazol-10-yl 3,4,6-trideoxy-3-(dimethylamino)-D-xylo-hexopyranoside]
6.25 µg/mL (≈ 8.06 µM) | 0.78 µg/mL (≈ 1.01 µM) | 1.56 µg/mL (≈ 2.01 µM) | 0.78 µg/mL (≈ 1.01 µM) | 0.2 µg/mL (≈ 0.258 µM) | ≦0.05 | 0.1 µg/mL (≈ 0.129 µM) | ≦0.05 | ≦0.05 | 0.4 µg/mL (≈ 0.516 µM) | 0.78 µg/mL (≈ 1.01 µM) | ≦0.05 | 0.2 µg/mL (≈ 0.258 µM) |  |  | CC[C@H]1OC(=O)[C@H](C)C(=O)[C@H](C)[C@@H](OC2O[C@H](C)C[C@H](N(C)C)[C@H]2O)[C@@](C)(OC)C[C@@H](C)C(=O)[C@H](C)[C@H]2N(CCN(C)Cc3cccnc3)C(=O)O[C@]12CC (stereo partly drawn) [Example 23, (3aS,4R,7R,9R,10R,11S,13R,15R,15aR)-3a,4-diethyl-11-methoxy-7,9,11,13,15-pentamethyl-1-{2-[methyl(pyridin-3-ylmethyl)amino]ethyl}-2,6,8,14-tetraoxotetradecahydro-2H-oxacyclotetradecino[4,3-d][1,3]oxazol-10-yl 3,4,6-trideoxy-3-(dimethylamino)-D-xylo-hexopyranoside]
3.13 µg/mL (≈ 3.78 µM) | 0.2 µg/mL (≈ 0.242 µM) | 0.4 µg/mL (≈ 0.484 µM) | 0.2 µg/mL (≈ 0.242 µM) | 0.1 µg/mL (≈ 0.121 µM) | ≦0.05 | 0.1 µg/mL (≈ 0.121 µM) | ≦0.05 | ≦0.05 | 0.4 µg/mL (≈ 0.484 µM) | 0.1 µg/mL (≈ 0.121 µM) | ≦0.05 | 0.1 µg/mL (≈ 0.121 µM) |  |  | CC[C@H]1OC(=O)[C@H](C)C(=O)[C@H](C)[C@@H](OC2O[C@H](C)C[C@H](N(C)C)[C@H]2O)[C@@](C)(OC)C[C@@H](C)C(=O)[C@H](C)[C@H]2N(CCCCn3cnc(-c4cncnc4)c3)C(=O)O[C@]12CC (stereo partly drawn) [Example 25, (3aS,4R,7R,9R,10R,11S,13R,15R,15aR)-3a,4-diethyl-11-methoxy-7,9,11,13,15-pentamethyl-2,6,8,14-tetraoxo-1-[4-(4-pyrimidin-5-yl-1H-imidazol-1-yl)butyl]tetradecahydro-2H-oxacyclotetradecino[4,3-d][1,3]oxazol-10-yl 3,4,6-trideoxy-3-(dimethylamino)-D-xylo-hexopyranoside]
3.13 µg/mL (≈ 3.78 µM) | 0.2 µg/mL (≈ 0.242 µM) | 0.2 µg/mL (≈ 0.242 µM) | 0.2 µg/mL (≈ 0.242 µM) | 0.2 µg/mL (≈ 0.242 µM) | ≦0.05 | 0.1 µg/mL (≈ 0.121 µM) | ≦0.05 | ≦0.05 | 0.4 µg/mL (≈ 0.484 µM) | 0.2 µg/mL (≈ 0.242 µM) | ≦0.05 |  | ≦0.05 |  | CC[C@H]1OC(=O)[C@H](C)C(=O)[C@H](C)[C@@H](OC2O[C@H](C)C[C@H](N(C)C)[C@H]2O)[C@@](C)(OC)C[C@@H](C)C(=O)[C@H](C)[C@H]2N(CCCCn3cnc(-c4cnccn4)c3)C(=O)O[C@]12CC (stereo partly drawn) [Example 26, (3aS,4R,7R,9R,10R,11S,13R,15R,15aR)-3a,4-diethyl-11-methoxy-7,9,11,13,15-pentamethyl-2,6,8,14-tetraoxo-1-[4-(4-pyrazin-2-yl-1H-imidazol-1-yl)butyl]tetradecahydro-2H-oxacyclotetradecino [4,3-d][1,3]oxazol-10-yl 3,4,6-trideoxy-3-(dimethylamino)-D-xylo-hexopyranoside]
1.56 µg/mL (≈ 1.91 µM) | 0.1 µg/mL (≈ 0.122 µM) | 0.1 µg/mL (≈ 0.122 µM) | 0.1 µg/mL (≈ 0.122 µM) | 0.05 µg/mL (≈ 0.0611 µM) | ≦0.025 | 0.1 µg/mL (≈ 0.122 µM) |  | ≦0.025 | 0.4 µg/mL (≈ 0.489 µM) | 3.13 µg/mL (≈ 3.83 µM) | ≦0.025 | 0.1 µg/mL (≈ 0.122 µM) |  | 0.025 µg/mL (≈ 0.0306 µM) | CC[C@H]1OC(=O)[C@@](C)(F)C(=O)[C@H](C)[C@@H](OC2O[C@H](C)C[C@H](N(C)C)[C@H]2O)[C@@](C)(OC)C[C@@H](C)C(=O)[C@H](C)[C@H]2N(CCCCn3cnc4ncccc43)C(=O)O[C@]12CC (stereo partly drawn) [Example 27, (3aS,4R,7S,9R,10R,11S,13R,15R,15aR)-3a,4-diethyl-7-fluoro-1-[4-(1H-imidazo[4,5-b]pyridin-1-yl)butyl]-11-methoxy-7,9,11,13,15-pentamethyl-2,6,8,14-tetra-oxotetradecahydro-2H-oxacyclotetradecino[4,3-d][1,3]oxazol-10-yl 3,4,6-trideoxy-3-(dimethylamino)-D-xylo-hexopyranoside]

SMILES | MIC [1] | MIC [2] | MIC [3] | MIC [4] | MIC [5] | MIC [6] | MIC [7] | MIC [8] | MIC [9] | MIC [10] | MIC [11] | MIC [12] | MIC ([13]; unit assumed) | MIC [13] | MIC ([8]; unit assumed)
CC[C@H]1OC(=O)[C@H](C)C(=O)[C@H](C)[C@@H](OC2O[C@H](C)C[C@H](N(C)C)[C@H]2O)[C@@](C)(OC)C[C@@H](C)C(=O)[C@H](C)[C@H]2N(CCCCn3cnc(-c4cccnc4)c3C)C(=O)O[C@]12CC (stereo partly drawn) [Example 21, (3aS,4R,7R,9R,10R,11S,13R,15R,15aR)-3a,4-diethyl-11-methoxy-7,9,11,13,15-pentamethyl-1-[4-(5-methyl-4-pyridin-3-yl-1H-imidazol-1-yl)butyl]-2,6,8,14-tetraoxotetradecahydro-2H-oxacyclotetradecino[4,3-d][1,3]oxazol-10-yl 3,4,6-trideoxy-3-(dimethylamino)-D-xylo-hexopyranoside] | 12.5 µg/mL (≈ 14.9 µM) | 0.4 µg/mL (≈ 0.476 µM) | 0.4 µg/mL (≈ 0.476 µM) | 0.4 µg/mL (≈ 0.476 µM) | 0.1 µg/mL (≈ 0.119 µM) | ≦0.05 | 0.1 µg/mL (≈ 0.119 µM) | ≦0.05 | ≦0.05 | 0.78 µg/mL (≈ 0.928 µM) | 0.2 µg/mL (≈ 0.238 µM) | ≦0.05 | 0.1 µg/mL (≈ 0.119 µM) |  | 
CC[C@H]1OC(=O)[C@H](C)C(=O)[C@H](C)[C@@H](OC2O[C@H](C)C[C@H](N(C)C)[C@H]2O)[C@@](C)(OC)C[C@@H](C)C(=O)[C@H](C)[C@H]2N(CCCCn3cnc(-c4ccncc4)c3)C(=O)O[C@]12CC (stereo partly drawn) [Example 28, (3aS,4R,7R,9R,10R,11S,13R,15R,15aR)-3a,4-diethyl-11-methoxy-7,9,11,13,15-pentamethyl-2,6,8,14-tetraoxo-1-[4-(4-pyridin-4-yl-1H-imidazol-1-yl)butyl]tetradecahydro-2H-oxacyclotetradecino[4,3-d][1,3]oxazol-10-yl 3,4,6-trideoxy-3-(dimethylamino)-D-xylo-hexopyranoside] | 3.13 µg/mL (≈ 3.79 µM) | 0.4 µg/mL (≈ 0.484 µM) | 0.4 µg/mL (≈ 0.484 µM) | 0.4 µg/mL (≈ 0.484 µM) | 0.1 µg/mL (≈ 0.121 µM) | ≦0.05 | 0.2 µg/mL (≈ 0.242 µM) | ≦0.05 | ≦0.05 | 0.78 µg/mL (≈ 0.944 µM) | > 50 µg/mL | ≦0.05 | 0.4 µg/mL (≈ 0.484 µM) |  | 
